Assay results: ChEMBL document CHEMBL1125558 (J Med Chem, 1992)
pIC50: −log10 of the molar value.

Assays:
Rattus norvegicus [1] = organism: Rattus norvegicus; assay: Compound was evaluated for its ability to inhibit high-affinity uptake of [3H]dopamine into striatal nerve endings of rat; assay type: functional
[2] = target: Sodium-dependent dopamine transporter (Rattus norvegicus, UniProt P23977); assay: Compound was evaluated for its ability to displace [3H]mazindol binding from rat striatal membranes
Rattus norvegicus [3] = assay: Mean responses per minute at dose 0.2 mg/kg evaluated by substitution tests in trained rats(post injection interval 120 min); assay type: functional
Rattus norvegicus [4] = assay: Number of animals(n) completing 20 responses on either lever out of the number of animals tested (N) at dose 0.8 mg/kg evaluated by dose-response tests in trained rats(post injection interval 240 min); n/N=3/7; assay type: functional
Rattus norvegicus [5] = assay: Mean responses per minute at dose 0.1 mg/kg evaluated by substitution tests in trained rats(post injection interval 240 min); assay type: functional
Rattus norvegicus [6] = assay: Mean responses per minute at dose 0.4 mg/kg evaluated by substitution tests in trained rats(post injection interval 120 min); assay type: functional
Rattus norvegicus [7] = assay: Number of animals(n) completing 20 responses on either lever out of the number of animals tested (N) at dose 0.8 mg/kg evaluated by dose-response tests in trained rats(post injection interval 120 min); n/N=1/7; assay type: functional
Rattus norvegicus [8] = assay: Percent response at dose 0.8 mg/kg evaluated by substitution tests in trained rats(post injection interval 30 min); assay type: functional
Rattus norvegicus [9] = assay: Mean responses per minute at dose 0.4 mg/kg evaluated by substitution tests in trained rats(post injection interval 30 min); assay type: functional
Rattus norvegicus [10] = assay: Percent response at dose 0.2 mg/kg evaluated by substitution tests in trained rats(post injection interval 30 min); assay type: functional
Rattus norvegicus [11] = assay: Mean responses per minute at dose 0.8 mg/kg evaluated by substitution tests in trained rats(post injection interval 120 min); assay type: functional
Rattus norvegicus [12] = assay: Number of animals(n) completing 20 responses on either lever out of the number of animals tested (N) at dose 0.1 mg/kg evaluated by dose-response tests in trained rats(post injection interval 120 min); n/N=7/7; assay type: functional
Rattus norvegicus [13] = assay: Number of animals(n) completing 20 responses on either lever out of the number of animals tested (N) at dose 0.4 mg/kg evaluated by dose-response tests in trained rats(post injection interval 120 min); n/N=3/5; assay type: functional
Rattus norvegicus [14] = assay: Percent response at dose 0.05 mg/kg evaluated by substitution tests in trained rats(post injection interval 120 min); assay type: functional
Rattus norvegicus [15] = assay: Mean responses per minute at dose 0.2 mg/kg evaluated by substitution tests in trained rats(post injection interval 30 min); assay type: functional
Rattus norvegicus [16] = assay: Number of animals(n) completing 20 responses on either lever out of the number of animals tested (N) at dose 0.2 mg/kg evaluated by dose-response tests in trained rats(post injection interval 240 min); n/N=7/7; assay type: functional
Rattus norvegicus [17] = assay: Mean responses per minute at dose 0.8 mg/kg evaluated by substitution tests in trained rats(post injection interval 30 min); assay type: functional
Rattus norvegicus [18] = assay: Percent response at dose 0.4 mg/kg evaluated by substitution tests in trained rats(post injection interval 120 min); assay type: functional
Rattus norvegicus [19] = assay: Percent response at dose 0.4 mg/kg evaluated by substitution tests in trained rats(post injection interval 240 min); assay type: functional
Rattus norvegicus [20] = assay: Percent response at dose 0.1 mg/kg evaluated by substitution tests in trained rats(post injection interval 120 min); assay type: functional
Rattus norvegicus [21] = assay: Percent response at dose 0.05 mg/kg evaluated by substitution tests in trained rats(post injection interval 240 min); assay type: functional
Rattus norvegicus [22] = organism: Rattus norvegicus; assay: Result of substitution tests in trained rats and expressed as effective dose(post injection interval 120 min); assay type: functional; conditions: 2 h
Rattus norvegicus [23] = organism: Rattus norvegicus; assay: Result of substitution tests in trained rats and expressed as effective dose(post injection interval 240 min); assay type: functional; conditions: 4 h
Rattus norvegicus [24] = assay: Number of animals(n) completing 20 responses on either lever out of the number of animals tested (N) at dose 0.05 mg/kg evaluated by dose-response tests in trained rats(post injection interval 240 min); n/N=7/7; assay type: functional
Rattus norvegicus [25] = assay: Percent response at dose 0.1 mg/kg evaluated by substitution tests in trained rats(post injection interval 30 min); assay type: functional
Rattus norvegicus [26] = assay: Mean responses per minute at dose 0.05 mg/kg evaluated by substitution tests in trained rats(post injection interval 120 min); assay type: functional
Rattus norvegicus [27] = assay: Percent response at dose 0.1 mg/kg evaluated by substitution tests in trained rats(post injection interval 240 min); assay type: functional
Rattus norvegicus [28] = assay: Mean responses per minute at dose 0.1 mg/kg evaluated by substitution tests in trained rats(post injection interval 120 min); assay type: functional
Rattus norvegicus [29] = assay: Mean responses per minute at dose 0.2 mg/kg evaluated by substitution tests in trained rats(post injection interval 240 min); assay type: functional
Rattus norvegicus [30] = assay: Percent response at dose 0.2 mg/kg evaluated by substitution tests in trained rats(post injection interval 240 min); assay type: functional
Rattus norvegicus [31] = assay: Percent response at dose 0.8 mg/kg evaluated by substitution tests in trained rats(post injection interval 240 min); assay type: functional
Rattus norvegicus [32] = assay: Number of animals(n) completing 20 responses on either lever out of the number of animals tested (N) at dose 0.05 mg/kg evaluated by dose-response tests in trained rats(post injection interval 120 min); n/N=7/7; assay type: functional
Rattus norvegicus [33] = assay: Percent response at dose 0.8 mg/kg evaluated by substitution tests in trained rats(post injection interval 120 min); assay type: functional
Rattus norvegicus [34] = organism: Rattus norvegicus; assay: Result of substitution tests in trained rats and expressed as effective dose(post injection interval 30 min); assay type: functional; conditions: 0.5 h
Rattus norvegicus [35] = assay: Percent response at dose 0.2 mg/kg evaluated by substitution tests in trained rats(post injection interval 120 min); assay type: functional
Rattus norvegicus [36] = assay: Number of animals(n) completing 20 responses on either lever out of the number of animals tested (N) at dose 0.2 mg/kg evaluated by dose-response tests in trained rats(post injection interval 120 min); n/N=7/7; assay type: functional
Rattus norvegicus [37] = assay: Number of animals(n) completing 20 responses on either lever out of the number of animals tested (N) at dose 0.8 mg/kg evaluated by dose-response tests in trained rats(post injection interval 30 min); n/N=7/7; assay type: functional
Rattus norvegicus [38] = assay: Mean responses per minute at dose 0.8 mg/kg evaluated by substitution tests in trained rats(post injection interval 240 min); assay type: functional
Rattus norvegicus [39] = assay: Number of animals(n) completing 20 responses on either lever out of the number of animals tested (N) at dose 0.1 mg/kg evaluated by dose-response tests in trained rats(post injection interval 240 min); n/N=7/7; assay type: functional
Rattus norvegicus [40] = assay: Number of animals(n) completing 20 responses on either lever out of the number of animals tested (N) at dose 0.05 mg/kg evaluated by dose-response tests in trained rats(post injection interval 30 min); n/N=7/7; assay type: functional
Rattus norvegicus [41] = assay: Percent response at dose 0.4 mg/kg evaluated by substitution tests in trained rats(post injection interval 30 min); assay type: functional
Rattus norvegicus [42] = assay: Mean responses per minute at dose 0.05 mg/kg evaluated by substitution tests in trained rats(post injection interval 30 min); assay type: functional
Rattus norvegicus [43] = assay: Number of animals(n) completing 20 responses on either lever out of the number of animals tested (N) at dose 0.2 mg/kg evaluated by dose-response tests in trained rats(post injection interval 30 min); n/N=7/7; assay type: functional
Rattus norvegicus [44] = assay: Mean responses per minute at dose 0.1 mg/kg evaluated by substitution tests in trained rats(post injection interval 30 min); assay type: functional
Rattus norvegicus [45] = assay: Percent response at dose 0.05 mg/kg evaluated by substitution tests in trained rats(post injection interval 30 min); assay type: functional
Rattus norvegicus [46] = assay: Number of animals(n) completing 20 responses on either lever out of the number of animals tested (N) at dose 0.4 mg/kg evaluated by dose-response tests in trained rats(post injection interval 240 min); n/N=4/5; assay type: functional
Rattus norvegicus [47] = assay: Number of animals(n) completing 20 responses on either lever out of the number of animals tested (N) at dose 0.4 mg/kg evaluated by dose-response tests in trained rats(post injection interval 30 min); n/N=7/7; assay type: functional
Rattus norvegicus [48] = assay: Mean responses per minute at dose 0.4 mg/kg evaluated by substitution tests in trained rats(post injection interval 240 min); assay type: functional
Rattus norvegicus [49] = assay: Mean responses per minute at dose 0.05 mg/kg evaluated by substitution tests in trained rats(post injection interval 240 min); assay type: functional
Rattus norvegicus [50] = assay: Number of animals(n) completing 20 responses on either lever out of the number of animals tested (N) at dose 0.1 mg/kg evaluated by dose-response tests in trained rats(post injection interval 30 min); n/N=7/7; assay type: functional
Rattus norvegicus [51] = organism: Rattus norvegicus; assay: Compound was evaluated for its ability to displace [3H]-mazindol binding from rat striatal membranes

Chain of Sodium-dependent dopamine transporter (P23977 whole entry): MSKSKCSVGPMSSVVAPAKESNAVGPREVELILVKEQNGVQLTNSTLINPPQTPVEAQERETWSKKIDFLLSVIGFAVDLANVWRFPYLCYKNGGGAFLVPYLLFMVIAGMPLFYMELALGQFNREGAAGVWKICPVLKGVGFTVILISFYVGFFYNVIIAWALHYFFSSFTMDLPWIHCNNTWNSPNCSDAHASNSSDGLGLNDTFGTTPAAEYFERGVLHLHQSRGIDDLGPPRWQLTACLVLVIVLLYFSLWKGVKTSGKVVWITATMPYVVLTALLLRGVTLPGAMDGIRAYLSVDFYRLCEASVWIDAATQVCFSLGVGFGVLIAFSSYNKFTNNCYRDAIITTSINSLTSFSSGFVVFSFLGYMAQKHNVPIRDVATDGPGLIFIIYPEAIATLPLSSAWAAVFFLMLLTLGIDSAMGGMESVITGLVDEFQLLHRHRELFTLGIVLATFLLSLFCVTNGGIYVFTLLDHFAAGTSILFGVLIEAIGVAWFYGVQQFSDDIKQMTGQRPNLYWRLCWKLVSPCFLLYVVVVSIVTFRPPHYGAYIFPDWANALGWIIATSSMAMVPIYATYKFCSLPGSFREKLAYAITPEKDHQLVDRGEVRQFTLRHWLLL

C=C[C@@H]1C2CC[C@H](C[C@@H]1OC(=O)c1ccccc1)N2C gave a pIC50 (Rattus norvegicus [1]) of 5.95 and a pIC50 [2] of 5.76.

CN1C2CC[C@@H]1C[C@H](OC(=O)c1ccccc1)[C@@H]2/C=C/Cl gave a pIC50 (Rattus norvegicus [1]) of 6.43 and a pIC50 [2] of 6.65.

C=C[C@@H]1C2CCC(C[C@@H]1c1ccc(Cl)cc1)N2C (stereo partly specified) was tested, and the Rate response (Rattus norvegicus [3]) was 46.8 min⁻¹, the “No. resp animals / Total” value (Rattus norvegicus [4]) was 3 / 7 and the Rate response (Rattus norvegicus [5]) was 23.5 min⁻¹. For the same compound, the Rate response (Rattus norvegicus [6]) was 24.9 min⁻¹, the “No. resp animals / Total” value (Rattus norvegicus [7]) was 5 / 5 and the Drug response (Rattus norvegicus [8]) was 93%. The pIC50 (Rattus norvegicus [1]) was 8.55, the Rate response (Rattus norvegicus [9]) was 52.8 min⁻¹ and the Drug response (Rattus norvegicus [10]) was 83%. For the same compound, the Rate response (Rattus norvegicus [11]) was 7.7 min⁻¹, the “No. resp animals / Total” value (Rattus norvegicus [12]) was 7 / 7 and the “No. resp animals / Total” value (Rattus norvegicus [13]) was 7 / 7. For the same compound, the Drug response (Rattus norvegicus [14]) was 22%, the Rate response (Rattus norvegicus [15]) was 26.2 min⁻¹ and the “No. resp animals / Total” value (Rattus norvegicus [16]) was 7 / 7. For the same compound, the Rate response (Rattus norvegicus [17]) was 33.5 min⁻¹, the Drug response (Rattus norvegicus [18]) was 72% and the Drug response (Rattus norvegicus [19]) was 91%. For the same compound, the Drug response (Rattus norvegicus [20]) was 75%, the Drug response (Rattus norvegicus [21]) was 14% and the ED50 (Rattus norvegicus [22]) was 0.08 mg/kg. The ED50 (Rattus norvegicus [23]) was 0.09 mg/kg, the “No. resp animals / Total” value (Rattus norvegicus [24]) was 7 / 7 and the Drug response (Rattus norvegicus [25]) was 40%. It also gave a Rate response (Rattus norvegicus [26]) of 18.4 min⁻¹, a Drug response (Rattus norvegicus [27]) of 61% and a Rate response (Rattus norvegicus [28]) of 25.7 min⁻¹. For the same compound, the Rate response (Rattus norvegicus [29]) was 47.9 min⁻¹, the Drug response (Rattus norvegicus [30]) was 98% and the Drug response (Rattus norvegicus [31]) was 100%. For the same compound, the “No. resp animals / Total” value (Rattus norvegicus [32]) was 7 / 7, the Drug response (Rattus norvegicus [33]) was 95% and the ED50 (Rattus norvegicus [34]) was 0.11 mg/kg. The Drug response (Rattus norvegicus [35]) was 100%, the “No. resp animals / Total” value (Rattus norvegicus [36]) was 7 / 7 and the “No. resp animals / Total” value (Rattus norvegicus [37]) was 7 / 7. The Rate response (Rattus norvegicus [38]) was 39.1 min⁻¹, the “No. resp animals / Total” value (Rattus norvegicus [39]) was 7 / 7 and the “No. resp animals / Total” value (Rattus norvegicus [40]) was 7 / 7. The Drug response (Rattus norvegicus [41]) was 99%, the Rate response (Rattus norvegicus [42]) was 29.6 min⁻¹ and the “No. resp animals / Total” value (Rattus norvegicus [43]) was 7 / 7. The Rate response (Rattus norvegicus [44]) was 37.1 min⁻¹, the Drug response (Rattus norvegicus [45]) was 19% and the “No. resp animals / Total” value (Rattus norvegicus [46]) was 1 / 7. The “No. resp animals / Total” value (Rattus norvegicus [47]) was 7 / 7, the Rate response (Rattus norvegicus [48]) was 23.6 min⁻¹ and the Rate response (Rattus norvegicus [49]) was 28.3 min⁻¹. The “No. resp animals / Total” value (Rattus norvegicus [50]) was 4 / 5.

CN1C2CCC1[C@@H](/C=C/Cl)[C@@H](c1ccc(Cl)cc1)C2 (stereo partly specified) gave a pIC50 (Rattus norvegicus [1]) of 8.89 and a pIC50 (Rattus norvegicus [51]) of 9.15.

COC(=O)C1C2CC[C@H](C[C@@H]1c1ccc(Cl)cc1)N2C (stereo partly specified) was tested, and the pIC50 (Rattus norvegicus [1]) was 8.49.
